In EP2601188B1, “HEPATITIS C VIRUS INHIBITORS” (Bristol-Myers Squibb Company, priority 2010, dated 2012):
Like-named read-outs stand apart in the source and are kept apart here.

Test system: HCV 1b genotype
Test: HCV Replicon assay (HCV-neo replicon cells, wild-type)
Format: cell-based
Conditions: HCV 1b genotype replicon
Description: An HCV Replicon assay was utilized in the present disclosure, and was prepared, conducted and validated as described in commonly owned PCT/US2006/022197 and in O'Boyle et. al. Antimicrob Agents Chemother. 2005 Apr;49(4):1346-53. Assay methods incorporating luciferase reporters have also been used as described (Apath.com).
HCV-neo replicon cells and replicon cells containing mutations in the NS5A region were used to test the currently described family of compounds. The compounds were determined to have more than 10-fold less inhibitory activity on cells containing mutations than wild-type cells. Thus, the compounds of the present disclosure can be effective in inhibiting the function of the HCV NS5A protein and are understood to be as effective in combinations as previously described in application PCT/US2006/022197 and commonly owned WO/O4014852. Further, the compounds of the present disclosure can be effective against the HCV 1b genotype. It should also be understood that the compounds of the present disclosure can inhibit multiple genotypes of HCV. […] In one embodiment, compounds of the present disclosure are inhibitory versus 1a, 1b, 2a, 2b, 3a, 4a, and 5a genotypes.

[1] = Hepatitis C virus, class symbols, read-out: EC50 Range
[2] = Hepatitis C virus, values in nM, read-out: EC50

Row | Compound | EC50 [1] [pM] | also measured
1 | O=C(Nc1cccc(-c2cnc(-c3ccc4[nH]c([C@@H]5CCCN5C(=O)CC5CC5)nc4c3)o2)c1)[C@@H]1CCCN1C(=O)CC1CC1 [J.53a, 1-(cyclopropylacetyl)-N-(3-(2-(2-((2S)-1-(cyclopropylacetyl)-2-pyrrolidinyl)-1H-benzimidazol-5-yl)-1,3-oxazol-5-yl)phenyl)-L-prolinamide] | 1e+06 to 1e+07 | 
2 | COC(=O)N[C@@H](C(=O)N1CCC[C@H]1c1nc(C#Cc2ccc(-c3ccc4[nH]c([C@@H]5CCCN5C(=O)[C@H](NC(=O)OC)C(C)C)nc4c3)cc2)c[nH]1)C(C)C [JB.8.1, methyl ((1R)-1-(((2S)-2-(4-((4-(2-((2S)-1-((2R)-2-((methoxycarbonyl)amino)-3-methylbutanoyl)-2-pyrrolidinyl)-1H-benzimidazol-5-yl)phenyl)ethynyl)-1H-imidazol-2-yl)-1-pyrrolidinyl)carbonyl)-2-methylpropyl)carbamate] | 100000 to 999000 | 
3 | O=C([C@@H](c1ccccc1)N1CCCCC1)N1CCC[C@H]1c1nc(C#Cc2ccc(-c3ccc4[nH]c([C@@H]5CCCN5C(=O)[C@@H](c5ccccc5)N5CCCCC5)nc4c3)cc2)c[nH]1 [JB.12, 2-((2S)-1-((2R)-2-phenyl-2-(1-piperidinyl)acetyl)-2-pyrrolidinyl)-5-(4-((2-((2S)-1-((2R)-2-phenyl-2-(1-piperidinyl)acetyl)-2-pyrrolidinyl)-1H-imidazol-4-yl)ethynyl)phenyl)-1H-benzimidazole] |  | EC50 (Hepatitis C virus, values given in pM, read-out: EC50): 65.2 pM
4 | CC(=O)N1CCC[C@H]1C(=O)Nc1ccc(C#Cc2ccc3nc([C@@H]4CCCN4C(=O)Cc4ccccc4)[nH]c3c2)cc1 [M.8, (S)-1-acetyl-N-(4-((2-((S)-1-(2-phenylacetyl)pyrrolidin-2-yl)-1H-benzo[d]imidazol-6-yl)ethynyl)phenyl)pyrrolidine-2-carboxamide] | 4570 to 99000 | EC50 [2]: 46400 pM
5 | O=C(Nc1ccc(C#Cc2ccc3nc([C@@H]4CCCN4C(=O)Cc4ccccc4)[nH]c3c2)cc1)[C@@H]1CCCN1C(=O)Cc1ccccc1 [M.9, (S)-1-(2-phenylacetyl)-N-(4-((2-((S)-1-(2-phenylacetyl)pyrrolidin-2-yl)-1H-benzo [d]imidazol-6-yl)ethynyl)phenyl)pyrrolidine-2-carboxamide] | 4570 to 99000 | 
6 | CC(=O)N1CCC[C@H]1C(=O)Nc1ccc(CCc2ccc3nc([C@@H]4CCCN4C(=O)Cc4ccccc4)[nH]c3c2)cc1 [M.10, (S)-1-acetyl-N-(4-(2-(2-((S)-1-(2-phenylacetyl)pyrrolidin-2-yl)-1H-benzo[d]imidazol-6-yl)ethyl)phenyl)pyrrolidine-2-carboxamide] | 100000 to 999000 | EC50 [2]: 202000 pM
7 | O=C(Nc1ccc(CCc2ccc3nc([C@@H]4CCCN4C(=O)Cc4ccccc4)[nH]c3c2)cc1)[C@@H]1CCCN1C(=O)Cc1ccccc1 [M.11, (S)-1-(2-phenylacetyl)-N-(4-(2-(2-((S)-1-(2-phenylacetyl)pyrrolidin-2-yl)-1H-benzo [d]imidazol-6-yl)ethyl)phenyl)pyrrolidine-2-carboxamide] | 4570 to 99000 | 
8 | (2R)-2-(dimethylamino)-N-(3-(5-(2-((2S)-1-((2R)-2-(dimethylamino)-2-phenylacetyl)-2-pyrrolidinyl)-1H-benzimidazol-5-yl)-1,3-oxazol-2-yl)phenyl)-2-phenylacetamide [J.48b] |  | EC50 (class symbols, read-out: EC50 Range): 4570 to 99000 pM
